# Counter-ions that a name gives are not always drawn. Like-named read-outs stand apart in the source and are kept apart here.
# Experiments:
# [1] = tested on: C. albicans strain SC5314; assay: High-throughput screening (HTS) with antifungal susceptibility test, CellTiter-Glo ATP read-out; format: cell-based, Candida albicans; conditions: for inhibition at 10 µM: Candida albicans, SC5314, 24 h
# Method: (§1) The in vitro susceptibility of well-characterized wild-type C. albicans strain SC5314, which was provided by Prof. N.A.R. Gow (University of Aberdeen, Aberdeen, UK) was tested against 1280 compounds from the Library of Pharmacologically Active Compounds (LOPAC^1280TM, Sigma–Aldrich, USA). The screen was performed with C. albicans SC5314, and hits were further confirmed with the type strains C. dubliniensis MYA 577, C. glabrata ATCC 2001, C. kusei ATCC 6258, C. palapsilosis ATCC 22019, and C. tropicalis ATCC13803.
# High-Throughput Screening was conducted using ASTs, according to the standard Clinical and Laboratory Standard Institute (CLSI) method ([Watamoto et al., 2009]). Inocula from 24-h yeast cultures on Sabouraud’s dextrose agar (SDA) (Gibco, UK) were adjusted to a turbidity equivalent to a 0.5 McFarland standard at 520 nm using a spectrophotometer. The suspension was diluted further with RPMI 1640 medium (Gibco, UK) to yield an inoculum concentration of 0.5 × 10^3 to 2.5 × 10^3 cells/mL. C. albicans was incubated with small-molecule compounds (10 μM) from LOPAC^1280TM, which total volume was 150 μL, in 96-well plates at 37°C for 24 h to evaluate the antifungal effects. After incubation, the viability of the fungal cells was determined using the CellTiter-Glo luminescent cell viability kit (Promega, USA). The CellTiter-Glo reagent (150 μL) was added to the medium and incubated for 15 min at room temperature with shaking at 900 rpm. The luminescent signals were detected using a luminometer (GloMax Discover System, Promega, USA). The resulting signal intensity corresponds to ATP amounts and thus to the number of viable microbial cells upon drug exposure ([Stylianou et al., 2014]). In all 96-well plates, 100 and 0% growth controls were included as microbes plus dimethyl sulfoxide (0.1%) and microbes plus amphotericin B (100 μM), respectively. All assays were performed at least as two biological replicates in triplicate. The ATP level of C. albicans cells, which corresponded to the cell metabolic activity and viability, was calculated for each compound using the following equation (Figure 1A).
# Percentageinhibition=100 × 1-{(experimental-positivecontrolaverage)/(negativecontrolaverage-positivecontrolaverage)}
# Wells were scored as hits if the percentage inhibition was >50%. Hit compounds were evaluated further to assess their antifungal effects.
# C. albicans SC5314 [2] = assay: AST, adhesion phase; format: cell-based; conditions: Candida albicans, SC5314, 1.5 h; adhesion phase (90 min adherence); read-out: Minimum inhibitory concentration (MIC)
# Method: as §1
# (§2) To investigate the antifungal effects of the hit compounds, ASTs were conducted using broth microdilution assays with high cell densities of the planktonic mode, adhesion phase and biofilm mode against Candida strains (C. albicans, C. dubliniensis, C. glabrata, C. kusei, C. palapsilosis, and C. tropicalis). First, high density cell (1 × 10^7 cells/mL) suspensions were added to the RPMI medium containing each hit compound (10–1000 μM) in 96-well plates and incubated at 37°C for 24 h. Next, the 50% minimum inhibitory concentrations (MICs) of high-density Candida planktonic cultures were determined using the CellTiter-Glo luminescent cell viability kit, as described above. The antifungal effects of the hit compounds were also evaluated in the adhesion phase and the biofilm mode, in the same manner as the planktonic mode. Candida biofilms were produced as described previously ([Jin et al., 2004]). In brief, Candida cells were grown on SDA at 37°C for 18 h. A loopful of the yeast culture was then inoculated into yeast nitrogen base (YNB) (Difco, USA) medium supplemented with 50 mM glucose. After overnight broth culture in a rotary shaker at 75 rpm, the cells were washed twice with 20 mL of PBS (pH 7.2, 0.1 M). The yeast cells were re-suspended in YNB supplemented with 100 mM glucose and adjusted to an optical density of 0.38 (1 × 10^7 cells/mL) at 520 nm. This standardized cell suspension was used immediately to form biofilms in the wells of 96-well polystyrene culture plates (Iwaki, Tokyo, Japan). First, the cells were incubated for 90 min at 37°C in a shaker at 75 rpm to allow yeast adherence to the well surface (adhesion phase), before the medium was aspirated and each well was washed once with PBS to remove non-adherent cells. YNB containing 100 mM glucose was then pipetted into each well and the plate was incubated at 37°C in a shaker at 75 rpm for 24 h. Non-adherent cells were removed by pipetting and the biofilms were washed twice with PBS. Following this biofilm growth phase, microscopic examination of the cultures was performed to exclude contamination. These ASTs were repeated on three different occasions.
# C. albicans SC5314 [3] = assay: AST broth microdilution, high cell density planktonic mode; format: cell-based, Candida albicans; conditions: 50% MIC, planktonic mode, 1 × 10^7 cells/mL, 24 h, read-out: Minimum inhibitory concentration (MIC)
# Method: as §1, §2
# [4] = tested on: C. albicans SC5314 biofilm; assay: AST, biofilm mode; format: cell-based; conditions: Candida albicans, SC5314; biofilm mode (24 h biofilm); read-out: Minimum inhibitory concentration (MIC)
# Method: as §1, §2
# [5] = compound 10 μM, 0.5 × 10^3 to 2.5 × 10^3 cells/mL, 37°C, 24 h
compound,measurement,setting,value
CCCCCCCCCCCCCCCC(=O)OC(CC(=O)O)C[N+](C)(C)C.[Cl-] (racemic) [Palmitoyl-DL-carnitine chloride],percent inhibition of the metabolic activity (ATP level) of C. albicans,[1]; [5],76.0%
"C[C@@H]1[C@H](O)[C@@H](C)/C=C/C=C/C=C/C=C/C=C/C=C/C=C/[C@H](O[C@@H]2O[C@H](C)[C@@H](O)[C@H](N)[C@@H]2O)C[C@@H]2O[C@](O)(C[C@@H](O)C[C@@H](O)[C@H](O)CC[C@@H](O)C[C@@H](O)CC(=O)O[C@H]1C)C[C@H](O)[C@H]2C(=O)O [AMB, amphotericin B]",MIC,C. albicans SC5314 [2],15.6 µM
same,MIC,C. albicans SC5314 [3],3.9 µM
same,MIC,"C. albicans SC5314 [3]; Candida albicans, SC5314, 24 h",< 3.9 µM
same,MIC,[4],62.5 µM
Cc1cc(N)c2ccccc2[n+]1CCCCCCCCCC[n+]1c(C)cc(N)c2ccccc21.O.[Cl-].[Cl-] [Dequalinium chloride hydrate],percent inhibition of the metabolic activity (ATP level) of C. albicans,[1]; [5],71.5%
COc1ccc2c(c[n+](C)c3c4cc5c(cc4ccc23)OCO5)c1OC [Chelerythrine chloride],inhibition at 10 µM,"[1]; compound 10 μM, 0.5 × 10^3 to 2.5 × 10^3 cells/mL, 37°C, 24 h, read-out: percent inhibition of the metabolic activity (ATP level) of C. albicans",82.4%
CN[C@@H]1C[C@@H](c2ccc(Cl)c(Cl)c2)c2ccccc21 [Indatraline hydrochloride],inhibition at 10 µM,"[1]; read-out: percent inhibition of the metabolic activity (ATP level) of C. albicans, compound 10 μM, 0.5 × 10^3 to 2.5 × 10^3 cells/mL, 37°C, 24 h",85.2%
